The values below come from patent publication US10138235B2, “Pyrazolopyridine derivatives, preparation process therefor and therapeutic use thereof” (SANOFI, priority 2011, dated 2018).

A value given as a limit tells only on which side of the number the result lay.

The test system of series [1] is HUVEC cells stimulated with FGF-2. In words: In vitro angiogenesis of HUVEC cells induced with FGF-2 (length of pseudotubules). It counts as cell-based, human. The settings on record: concentration at which active on FGF-2-induced angiogenesis of HUVEC cells, evaluated from 0.03 nM to 300 nM; for minimal effective concentration: Homo sapiens, 24 h. The method, then: To do this, matrices composed of matrigel (growth factor reduced matrigel, Becton Dickinson 356230) and of collagen (rat tail collagen type I, Becton Dickinson 354236) are deposited in an amount of 160 μl into each chamberslide well (Biocoat Cellware collagen, Type I, 8-well culturesides: Becton dickinson 354630), or 60 μl per well of 96-plate wells (Biocoat collagenl cellware, Becton Dickinson 354407). The matrix is prepared by mixing ⅓ of matrigel, 1 mg/ml final of collagen, 0.1N NaOH (0.026× the volume of collagen in μl), PBS 1×, and the volume is then adjusted with water. The gels are kept for 1 hour at 37° C. to allow their polymerization. Next, the human venous endothelial cells (HUVEC ref.: C-12200—Promocell) were seeded at 15×10^3 or 6×10^3 cells/well in 400 or 120 μl (for the 8-well or 96-well plates, respectively) of EBM medium (Clonetics C3121)+2% FBS+hEGF 10 μg/ml. They are stimulated with 1 or 3 ng/ml of FGF-2 (R&D system, 133-FB-025; Invitrogen, PHG0026) for 24 hours at 37° C. in the presence of 5% CO2. After 24 hours, the length of the network of microtubules formed is measured by means of the computer-assisted image analysis system (Imagenia Biocom, Courtaboeuf, France) and the total length of the pseudotubules in each well is determined. The mean total length of the microcapillary network is calculated in μm for each condition corresponding to the mean on 6 replicates
Stimulation with FGF-2 allows induction of the formation of new tubules. An FGF-R antagonist is considered as being active in this test if it is capable of partially inhibiting this angiogenesis at a dose of less than or equal to 300 nM.
In this experiment, the molecules are evaluated from 0.03 nM to 300 nM depending on the molecule with regard to induction of the angiogenesis of human HUVEC cells with FGF-2. Compounds 38 (Example 2), 46 (Example 1), 53 (Example 3), 56 (Example 4), 57 (Example 6), 61 (Example 5), 75 (Example 12), 83 (Example 13), 88 (Example 8), 91 (Example 15), 93 (Example 14), 106 (Example 11), 108 (Example 7) and 114 (Example 9) are active since they have inhibitory activity on the formation of pseudotubules of greater than or equal to 20% at a dose of less than or equal to 300 nM (FIG. 1). In the following table, A=active for a concentration<1 nM, B=active at a concentration of 1 nM, C=active at a concentration of 3 nM, D=active at a concentration of 10 nM, E=active at a concentration of 30 nM, and F=active at a concentration of 300 nM.

Series [2] concerns inflammatory angiogenesis in mice. The experiment in a line: Model of inflammatory angiogenesis in mice (air pocket granuloma). The format is in vivo. The settings on record: 30 mg/kg, after one week of treatment. How it is done:
The model described by Colville-N H et al. in 1995 makes it possible to study pharmacological agents that are capable of modulating the appearance of angiogenesis in an inflammatory context. The model is developed on female OF1 mice (Charles River laboratories) weighing about 25 g, and per group of 12. The animals are anaesthetized intraperitoneally with pentobarbital sodium (60 mg/kg; Sanofi Nutrition Santé Animale). An air pocket is created on the mouse's back by injecting 3 ml of air subcutaneously. After waking up, the animals receive a treatment in general by gavage and receive an injection of 0.5 ml of Freud's adjuvant (Sigma) with 0.1% croton oil (Sigma) into the pocket. Seven days later, the mice are again anaesthetized and placed on a hotplate at 40° C. 1 ml of carmine red (Aldrich Chemicals, 5% in 10% of gelatin) is injected into the caudal vein. The animals are then placed at 4° C. for 2-3 hours. The skins are then removed and dried for 24 hours in an oven at 56° C. […] The filtrates are read in a spectrophotometer at 492 nm against a calibration range of carmine red. […] The results are expressed as mean values (±sem). […]
The FGF-R antagonists are evaluated between 1 and 50 mg/kg using methylcellulose/Tween (0.6% v/v) as vehicle or any other vehicle that enables dissolution of the active principle. […]

The molecule `COc1cc(-c2cc(C(=O)O)c3cn[nH]c3n2)ccc1N` [Compound 38, 6-(4-Amino-3-methoxyphenyl)-1H-pyrazolo[3,4-b]pyridine-4-carboxylic acid] gave a minimal effective concentration in series [1] of 0.003 µM.
For the molecule `NC(=O)c1cc(-c2ccc(F)c(C(=O)O)c2)nc2[nH]nc(-c3ccccc3)c12` [Compound 46, 5-(4-Carbamoyl-3-phenyl-1H-pyrazolo[3,4-b]pyridin-6-yl)-2-fluorobenzoic acid], the minimal effective concentration in series [1] is below 0.001 µM. Besides, in series [2], the “weight of granuloma (dry weight of the skin)” value was “significantly reduces”.
In series [1], `O=C(O)c1cc(-c2cc(C(F)F)c3c(-c4ccccc4)n[nH]c3n2)ccc1F` [Compound 53, 5-[4-(Difluoromethyl)-3-phenyl-1H-pyrazolo[3,4-b]pyridin-6-yl)-2-fluorobenzoic acid] gave a minimal effective concentration below 0.001 µM.
Consider `O=C(O)c1cc(-c2cc(C(F)(F)F)c3c(-c4ccccc4)n[nH]c3n2)ccc1F` [Compound 56, 2-Fluoro-5-[3-phenyl-4-(trifluoromethyl)-1H-pyrazolo[3,4-b]pyridin-6-yl]benzoic acid], for which the minimal effective concentration in series [1] was below 0.001 µM.
As for `Cn1nc(-c2ccccc2)c2c(C(F)(F)F)cc(-c3ccc(N)c(C#N)c3)nc21` [Compound 57, 2-Amino-5-[1-methyl-3-phenyl-4-(trifluoromethyl)-1H-pyrazolo[3,4-b]pyridin-6-yl]benzonitrile], the melting point was 269 °C. In addition, the minimal effective concentration in series [1] amounted to 0.003 µM.
The molecule `CN(C)c1ccc(-c2cc(C(F)(F)F)c3c(-c4ccccc4)n[nH]c3n2)cc1` [Compound 61, N,N-Dimethyl-4-[3-phenyl-4-(trifluoromethyl)-1H-pyrazolo[3,4-b]pyridin-6-yl]aniline] displayed a melting point of 227 °C. Moreover, in series [1], the minimal effective concentration was 0.001 µM.
`Cn1ncc2c(C(F)F)cc(-c3ccc(N)c(C#N)c3)nc21` [Compound 72, 2-Amino-5-[4-(difluoromethyl)-1-methyl-1H-pyrazolo[3,4-b]pyridin-6-yl]benzonitrile] displayed a melting point of 251 °C. In addition, in series [1], the minimal effective concentration was found to be 0.01 µM.
`N#Cc1cc(-c2cc(C(F)F)c3cn[nH]c3n2)ccc1N` [Compound 75, 2-Amino-5-[4-(difluoromethyl)-1H-pyrazolo[3,4-b]pyridin-6-yl]benzonitrile] yielded a melting point of 263 °C. In addition, the minimal effective concentration in series [1] came out at 0.01 µM.
In the case of `CN(C)CCn1ncc2c(C(F)F)cc(-c3ccc(N)c(C#N)c3)nc21` [Compound 83], the Activity entry in series [1] was “D (D=active at a concentration of 10 nM)”.
Turning to `Cn1ncc2c(C(F)(F)F)cc(-c3ccc(N)c(C#N)c3)nc21` [Compound 88, 2-Amino-5-[1-methyl-4-(trifluoromethyl)-1H-pyrazolo[3,4-b]pyridin-6-yl]benzonitrile], the melting point amounted to 276 °C. In series [1], this molecule showed a minimal effective concentration of 0.003 µM.
Molecule `N#Cc1cc(-c2cc(C(F)F)c3c(-c4cccnc4)n[nH]c3n2)ccc1N` [Compound 91, 2-Amino-5-[4-(difluoromethyl)-3-(pyridin-3-yl)-1H-pyrazolo[3,4-b]pyridin-6-yl]benzonitrile] returned a melting point of 296 °C. In series [1], the minimal effective concentration worked out at 0.3 µM.
As to `Cn1nc(-c2cccnc2)c2c(C(F)(F)F)cc(-c3cccc(CN4CCOCC4)c3)nc21` [Compound 93], the Activity result in series [1] is reported as “F (F=active at a concentration of 300 nM)”.
In the case of `Cn1cc2c(C(F)F)cc(-c3ccc(N)c(C#N)c3)nc2n1` [Compound 106, 2-Amino-5-[4-(difluoromethyl)-2-methyl-2H-pyrazolo[3,4-b]pyridin-6-yl]benzonitrile], the minimal effective concentration in series [1] is below 0.001 µM.
`Cn1nc2nc(-c3ccc(N)c(C#N)c3)cc(C(F)(F)F)c2c1-c1ccccc1` [Compound 108, 2-Amino-5-[2-methyl-3-phenyl-4-(trifluoromethyl)-2H-pyrazolo[3,4-b]pyridin-6-yl]benzonitrile] displayed a melting point of 295 °C. The minimal effective concentration in series [1] turned out to be 0.003 µM.
As to `Cn1cc2c(C(F)(F)F)cc(-c3ccc(N)c(C#N)c3)nc2n1` [Compound 114, 2-Amino-5-[2-methyl-4-(trifluoromethyl)-2H-pyrazolo[3,4-b]pyridin-6-yl]benzonitrile], the melting point came out at 249 °C. This molecule yielded a minimal effective concentration in series [1] of 0.003 µM.
